Measurements published in US6096779A, “Amorphous piretanide, piretanide polymorphs, process for their preparation and their use” (Hoechst Pharmaceuticals & Chemicals K.K., priority 1995, dated 2000).
≈ marks a conversion by molar mass, not a printed value. Where two headings read alike, the source gives them in different places.

How the values were obtained:
[1] = Solubility in buffers at various pH values by dissolution tester, absorbance at 275 nm, 37° C.; format: physicochemical; conditions: pH 1, 37° C., vs piretanide form B
[2] = as above; format: physicochemical; conditions: for solubility in a buffer at a pH value of 1: pH 1, potassium chloride-hydrochloric acid buffer
Description: The amorphous piretanide obtained as described in Example 1 was analyzed for solubility in a buffer at various pH values by means of a dissolution tester, using piretanide form A as a control.
(§1) A sufficient amount of the amorphous piretanide to ensure supersaturation was added to 500 ml each of the buffers at various pH values as indicated below, and about 10 ml of a solution was sampled at appropriate intervals and filtered using a 0.45 μm filter. About 5 ml of the initial solution was discarded and the remainder was used as a sample solution and, if required, diluted with the same buffer. Solubility was determined by absorbance at 275 nm.
Buffer: pH 1 Potassium chloride-hydrochloric acid system
pH 3 Sodium chloride-glycine-hydrochloric acid system
pH 6.8 JP XII, second fluid
Solution temperature: 37° C.
The piretanide polymorph obtained as described in Example 6 was analyzed for solubility in a buffer at various pH values by means of a dissolution tester, using piretanide form A as a control.
as §1, with “buffer, if necessary, solubility” for “buffer. Solubility”

[3] = cited from earlier work; for solubility in a buffer at a pH value of 3: pH 3, 37° C.; for solubility at a pH value of 6.8: pH 6.8, 37° C.
[4] = pH 3, sodium chloride-glycine-hydrochloric acid buffer

Row | Compound | solubility compared with piretanide form B, pH 1 (in words) [1] | solubility ([2]; jp xii second fluid, pH 6.8, pH 6.8, JP XII second fluid, read-out: solubility in a buffer at a pH value of 6.8) | solubility ([2]; nacl-glycine-hcl buffer, pH 3, aqueous buffer, pH 3, sodium chloride-glycine-hydrochloric acid buffer, read-out: solubility in a buffer at a pH value of 3) | solubility in a buffer at a pH value of 1 [2] | solubility in a buffer at a pH value of 3 [2, 4] | solubility in a buffer at a pH value of 6.8 ([2]; pH 6.8, JP XII second fluid) | solubility in a buffer at a pH value of 1 ([3]; pH 1, 37° C., background) | solubility in a buffer at a pH value of 3 ([3]; background) | solubility at a pH value of 6.8 ([3]; background) | water solubility ([3]; water, 20° C.) | solubility ([2]; jp xii second fluid, pH 6.8, pH 6.8, JP XII second fluid, read-out: solubility in a buffer at a pH value of 6.8 (control, unit as printed))
1 | NS(=O)(=O)c1cc(C(=O)O)cc(N2CCCC2)c1Oc1ccccc1 [piretanide polymorph, 4-phenoxy-3-(1-pyrrolidinyl)-5-sulfamoyl-benzoicacid] | approximately similar solubility to that of piretanide form B | 9270 µg/mL (≈ 25.6 mM) | 67 µg/mL (≈ 0.185 mM) | 12.2 mg/100 ml |  |  |  |  |  |  | 
2 | NS(=O)(=O)c1cc(C(=O)O)cc(N2CCCC2)c1Oc1ccccc1 [amorphous piretanide, 4-phenoxy-3-(1-pyrrolidinyl)-5-sulfamoyl-benzoicacid] |  |  |  | 15.2 mg/100 ml | 6.5 mg/100 ml | 901.3 mg/100 ml |  |  |  |  | 
3 | NS(=O)(=O)c1cc(C(=O)O)cc(N2CCCC2)c1Oc1ccccc1 [piretanide form A, 4-phenoxy-3-(1-pyrrolidinyl)-5-sulfamoyl-benzoicacid] |  |  |  | 7.5 mg/100 ml | 4.2 mg/100 ml |  | 7.5 mg/100 ml | 4.2 mg/100 ml | 193.8 mg/100 ml | 7.9 mg/100 ml | 1940 µg/mL (≈ 5.35 mM)
4 | NS(=O)(=O)c1cc(C(=O)O)cc(N2CCCC2)c1Oc1ccccc1 [piretanide form B, 4-phenoxy-3-(1-pyrrolidinyl)-5-sulfamoyl-benzoicacid] |  |  |  |  |  |  |  | 6.4 mg/100 ml | 195.4 mg/100 ml |  | 
